Assay results published in patent publication US9567586B2, “EpCAM aptamer for detection of cancer stem cells” (DEAKIN UNIVERSITY, priority 2012, dated 2017).
Like-named read-outs stand apart in the source and are kept apart here.

Tests used:
[1] = test system: native EpCAM expressed on the cell surface; assay: Binding affinities of EpCAM aptamers by flow cytometry; set-up: species or system human; conditions: U118MG cells (EpCAM negative); read-out: KD (±SEM)
Experimental: (§1) Cells were harvested at 80% confluence with trypsin digestion and resuspended in washing buffer (DPBS with 5 mM MgCl2) and enumerated. Following centrifugation (1000×g for 5 min), the cell pellet was resuspended in assay buffer (DPBS supplemented with 5 mM MgCl2, 0.1 mg/ml tRNA, 0.1 mg/ml salmon sperm DNA, 0.2% [w/v] sodium azide, and 5% FCS) and diluted to 1×10^6/mL. The blocking step was carried out at 4′C. The binding of the aptamers was carried out at 37′C for 30 min or 4′C for 1 h, with the final concentration of magnesium chloride being 2.5 mM in all binding assays.
(§2) The equilibrium dissociation constant (K′d) of successful 2′-fluoropyrimidine RNA aptamer species to native EpCAM expressed on the cell surface was determined using flow cytometry with EpCAM-positive and -negative cell lines and a negative control (2-O-methyl-pyrimidine) aptamer (5′-DY647-mGCmGACUmGmGUUmACCCmGmGUCmGdT-3′) (SEQ ID NO:13). Kato III or U118MG cells (5×10^5) were first incubated with assay buffer followed by two washes with binding buffer prior to incubation with serial concentrations (approximately 10-fold above and below the apparent K′d) of FITC-labelled aptamer in a 100 μL assay buffer for 1 h on ice. The cells were washed three times, resuspended in 150 μL assay buffer containing 2.5 mM MgCl2 and subjected to flow cytometric analyses. The FITC-labelled unselected library was used as another negative control. The mean fluorescence intensity (MFI) of the unselected library was subtracted from that of the aptamer-target cell to generate the MFI of specific binding. The K′d for each aptamer was determined by Scatchard analysis according to the equation: [Bound aptamer]/[aptamer]=−(1/KD)×[bound aptamer]+([T]tol/KD) where [T]tot represents the total target concentration. Design and Generation of EpCAM Aptamer-siRNA Chimera
(§3) The binding affinities of both aptamers have been characterised against all five cell lines used in this study by flow cytometry, and the results are shown in Table 1.

[2] = molecular target: T1, native EpCAM expressed on the cell surface (Homo sapiens, UniProt P16422); assay: as above; conditions: read-out: KD (±SEM)
T1 construct: host or cells: T47D, MCF7, MDA-MB-231, HT-29 (EpCAM-positive); U118MG (EpCAM-negative control)
T1 sequence (P16422 24-314): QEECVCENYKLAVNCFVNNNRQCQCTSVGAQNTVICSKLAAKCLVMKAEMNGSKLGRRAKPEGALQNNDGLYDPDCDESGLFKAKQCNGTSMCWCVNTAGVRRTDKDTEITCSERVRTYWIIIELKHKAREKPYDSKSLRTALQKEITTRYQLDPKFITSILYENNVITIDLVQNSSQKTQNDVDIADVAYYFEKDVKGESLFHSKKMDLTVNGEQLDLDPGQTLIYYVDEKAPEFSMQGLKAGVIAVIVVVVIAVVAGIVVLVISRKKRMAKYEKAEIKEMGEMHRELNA
Experimental: as §1, §2, §3

| Substance | Kd [1] | Kd ([2]; HT29 cells) | Kd ([2]; MCF7 cells) | Kd ([2]; MDA-MB-231 cells) | Kd ([2]; T47D cells) |
| --- | --- | --- | --- | --- | --- |
| 5′-ACGUAUCCCUUUUCGCGUA-3′ (RNA aptamer, fluorescent dye conjugate used, modifications not given here, further chemistry not given here) [compound 23] | > 1 µM | 0.037 ± 0.0236 µM | 0.0637 ± 0.0404 µM | 0.0867 ± 0.0685 µM | 0.0412 ± 0.0292 µM |
| 5′-DY647-mGCmGACUmGmGUUmACCCmGmGUCmGdT-3′ (GCGACUGGUUACCCGGUCGN; 5' DY647, 2'-O-methyl, 3' dT, further chemistry not given here) [Control] | > 1 µM | 0.837 ± 0.265 µM | > 1 µM | > 1 µM | > 1 µM |
